In brackets after ≈: the same amount, converted by molar mass.
Columns and labels:
human recombinant GSK3β = human recombinant GSK3β (Homo sapiens, UniProt P49841); experiment: GSK3β scintillation proximity assay (SPA), inhibition of kinase activity; format: biochemical; settings: for Ki: GSK-3β, calculated via the Cheng-Prusoff equation; for IC50: SPA, 1 μM ATP
Description: The inhibition of GSK3β activity is assessed using a scintillation proximity assay (SPA) in a 96-well microtiter plate format. The assay utilizes purified human recombinant GSK3β enzyme (∼1 nM active), [γ-^33P]-ATP (0.04 μCi), and a biotinylated peptide substrate (Biotin-[…](PO3H2)-PQL) at a final concentration of 2 μM. Reactions are carried out in an assay buffer containing MOPS, EDTA, β-mercaptoethanol, Brij 35, glycerol, and BSA, and preincubated for 10–15 min at room temperature. Inhibitor testing is conducted in duplicate using 10 different concentrations. The kinase reaction is initiated by adding ATP (1 μM final) in the presence of 50 mM Mg(Ac)2. After a 15 min incubation at room temperature, the reaction is terminated by adding a solution (25 μL) containing 5 mM EDTA, 50 μM ATP, 0.1% Triton X-100, and 10 mg/mL streptavidin-coated SPA beads, followed by the addition of distilled water (50 μL). After a 6-h incubation, bound radioactivity is measured using a MicroBeta Trilux liquid scintillation counter (1450 MicroBeta Trilux, Wallac). Data are analyzed using nonlinear regression with variable slope (GraphPad Prism or Excel Fit), and results are reported as Ki values calculated via the Cheng-Prusoff equation.

GSK-3 [1] = experiment: Radioligand saturation binding assay with tritiated ligands in hippocampal membranes; set-up: species or system Sprague–Dawley rat; settings: tritiated ligand, hippocampus of SD rat brains
Description: The pharmacology and physicochemical properties of compounds 13a–13e are depicted in Table . To evaluate binding affinities, saturation binding assays using tritiated ligands [^3H]13a, [^3H]13c, [^3H]13d, [^3H]13e (Scheme S1) were performed using the hippocampal tissue of Sprague–Dawley (SD) rat brains. As depicted in Table A, total binding (TB), nonspecific binding (NSB), and specific binding (SB) of the respective tritiated ligands were measured with increasing concentrations of the radioligands. The dissociation constant (Kd) and capacity (B max) of each radioligand were calculated to confirm their binding affinity.
For membrane preparation, hippocampal tissue from adult rats (Sprague–Dawley) was dissected out, weighed, and frozen in 0.32 M sucrose at −70 °C. On the experiment day, the tissue was thawed, homogenized in 50 mM Tris, 5 mM EDTA (pH 7.4) and then centrifuged at 48 000 xg for 15 min at +4 °C. The pellet was diluted in binding buffer (50 mM Tris, 4 mM MgCl2, 1 mM EDTA pH 7.4) to a final concentration of 2.5 mg w.w./mL. Saturation binding experiments were performed in duplicate, with each tube containing 1 mg w.w. in 0.5 mL binding buffer and 0.1 – 17 nM (11–12 concentrations) of radioligand. Nonspecific binding was measured by adding 10 μM AR-A014418. The assays were incubated for 2–3 h at room temperature and terminated by quick filtration using Whatman GF/B filters pretreated with 0.3% polyethylenimine on a Brandel cell harvester. Radioactivity was measured with a Packard Tri-Carb 2900TR liquid scintillation counter, and data were processed by nonlinear regression analyses using PRISM 4.03.

[2] = Unbound fraction in brain (fu brain); format: in vitro ADME
Description: (§1) Multiparameter optimization (MPO) and brain/plasma concentration at steady-state (logBB) are widely used to predict BBB permeability. […] A detailed ADME/PK (absorption, distribution, metabolism, excretion and pharmacokinetics) profiling was conducted, and the results are listed in Table . […] These values meet the standards that BBB permeability is considered high if Papp A–B is ≥ 3.0 × 10^–6 cm/s and the efflux ratio is <3.0.

Solubility = format: physicochemical; settings: in dry DMSO at pH = 7.4
Description: as §1

[3] = Intrinsic clearance (CLint); format: in vitro ADME; settings: cells (cell type not named); read-out: median CLint
CYP1A2 = target: T1, CYP1A2 (Homo sapiens, UniProt P05177); experiment: CYP1A2 inhibition; format: in vitro ADME
T1 sequence (P05177 1-516): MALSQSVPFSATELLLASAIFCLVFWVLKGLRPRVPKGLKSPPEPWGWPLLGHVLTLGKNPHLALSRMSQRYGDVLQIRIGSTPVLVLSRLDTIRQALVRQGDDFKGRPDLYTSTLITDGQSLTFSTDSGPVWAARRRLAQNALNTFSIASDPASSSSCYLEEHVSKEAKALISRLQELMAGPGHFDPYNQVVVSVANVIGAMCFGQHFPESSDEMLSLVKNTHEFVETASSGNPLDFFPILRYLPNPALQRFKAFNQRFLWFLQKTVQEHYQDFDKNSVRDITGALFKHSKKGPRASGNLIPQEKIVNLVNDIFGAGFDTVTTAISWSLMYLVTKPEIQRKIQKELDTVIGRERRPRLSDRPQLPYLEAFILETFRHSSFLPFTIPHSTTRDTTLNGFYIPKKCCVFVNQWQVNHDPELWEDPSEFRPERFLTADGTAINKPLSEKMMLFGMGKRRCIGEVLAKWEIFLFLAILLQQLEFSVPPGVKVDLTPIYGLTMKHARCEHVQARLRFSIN
Description: (§2) The inhibitory properties of 13a–13e on four cytochrome P450 isoforms (CYP1A2, CYP2C9, CYP2D6 and CYP3A4) were greater than 2 μM.

CYP2C9 = CYP2C9 (Homo sapiens, UniProt P11712); experiment: CYP2C9 inhibition; format: in vitro ADME
Description: as §2

CYP2D6 = CYP2D6 (Homo sapiens, UniProt P10635); experiment: CYP2D6 inhibition; format: in vitro ADME
Description: as §2

CYP3A4 = CYP3A4 (Homo sapiens, UniProt P08684); experiment: CYP3A4 inhibition; format: in vitro ADME
Description: as §2

hERG channel = hERG channel (Homo sapiens, UniProt Q12809); experiment: hERG channel inhibition; settings: human
[4] = Apparent permeability (Papp A-B) and efflux ratio; format: in vitro ADME; settings: for efflux ratio: not told, Papp B–A/Papp A–B
Description: as §1

Protein binding (% free) = format: in vitro ADME; settings: read-out: mean Prot binding (% free)
[5] = Pharmacokinetics: half-life and bioavailability; settings: in vivo; for half-life: read-out: mean t 1/2 (converted)
GSK-3β = experiment: In vitro autoradiography on rat brain tissue sections; format: binding; settings: for blocking of [^3H]13a–13e binding in autoradiography: co-incubation, blocker 3 μM
Description: In the next step, we performed in vitro autoradiography studies on rat brain tissue sections to investigate the binding selectivity and distribution of compounds [^3H]13a–13e (Figure ). […] These findings support the potential of this compound series for further development as GSK-3β-targeted neuroimaging probes.
In vitro autoradiography was conducted on 10 μm thick cry-cut tissue sections of rat tissue that had been thaw-mounted onto microscope slides. The brain sections were incubated in 50 mM Tris-HCl buffer at room temperature and then incubated with [^3H]-ligand for 30 min. The sections were rinsed three times for 10 min each in Tris buffer at 1 °C, followed by a quick rinse in deionized water at 1 °C, and then air-dried at room temperature with a fan. The radiolabeled sections and Amersham plastic tritium standards were then exposed to phosphoimager plates (Fuji BAS-TR2040) overnight. Blocking studies were conducted using a 1000-fold excess of the cold reference compounds, and validated GSK-3β inhibitors AR-A014418 and SB-216763. […] This micromolar concentration is consistent with established methods for GSK-3 radioligand autoradiography blocking experiments.

GSK-3 [6] = settings: literature value for earlier GSK-3 PET ligand; cited from earlier work
GSK-3 [7] = settings: earlier reports, rodents and/or NHPs; cited from earlier work

hERG channel, sequence (Q12809 whole entry): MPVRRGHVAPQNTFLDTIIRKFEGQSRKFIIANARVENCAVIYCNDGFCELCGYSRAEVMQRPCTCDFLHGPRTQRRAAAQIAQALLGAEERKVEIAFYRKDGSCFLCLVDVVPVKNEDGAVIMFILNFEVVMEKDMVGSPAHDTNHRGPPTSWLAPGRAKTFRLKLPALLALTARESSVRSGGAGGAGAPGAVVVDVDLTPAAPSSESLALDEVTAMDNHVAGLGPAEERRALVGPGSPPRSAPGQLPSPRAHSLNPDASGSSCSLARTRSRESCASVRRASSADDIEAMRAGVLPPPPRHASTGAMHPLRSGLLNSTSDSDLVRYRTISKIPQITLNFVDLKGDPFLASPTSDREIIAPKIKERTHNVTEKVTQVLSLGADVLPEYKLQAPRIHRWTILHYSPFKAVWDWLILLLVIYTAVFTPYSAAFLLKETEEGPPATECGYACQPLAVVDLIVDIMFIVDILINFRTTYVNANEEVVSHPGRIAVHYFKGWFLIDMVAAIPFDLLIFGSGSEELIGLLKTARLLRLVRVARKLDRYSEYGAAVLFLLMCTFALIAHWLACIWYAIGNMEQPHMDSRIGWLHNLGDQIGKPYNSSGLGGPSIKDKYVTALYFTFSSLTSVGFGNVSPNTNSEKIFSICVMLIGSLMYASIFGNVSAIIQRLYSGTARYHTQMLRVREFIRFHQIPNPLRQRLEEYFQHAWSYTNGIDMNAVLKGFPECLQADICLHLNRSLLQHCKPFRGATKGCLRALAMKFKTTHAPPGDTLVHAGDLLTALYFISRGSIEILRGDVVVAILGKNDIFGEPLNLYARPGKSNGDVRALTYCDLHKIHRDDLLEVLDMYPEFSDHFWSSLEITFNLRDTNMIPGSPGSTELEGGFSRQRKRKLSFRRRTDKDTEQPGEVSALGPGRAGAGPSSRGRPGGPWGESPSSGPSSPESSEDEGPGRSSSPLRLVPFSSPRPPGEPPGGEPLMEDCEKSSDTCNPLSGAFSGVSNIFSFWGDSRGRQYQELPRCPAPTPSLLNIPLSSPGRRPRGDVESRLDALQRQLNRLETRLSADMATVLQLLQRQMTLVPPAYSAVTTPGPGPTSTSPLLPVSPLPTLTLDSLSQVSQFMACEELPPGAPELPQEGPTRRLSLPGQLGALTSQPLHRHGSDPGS
CYP2C9, sequence (P11712 whole entry, species assumed): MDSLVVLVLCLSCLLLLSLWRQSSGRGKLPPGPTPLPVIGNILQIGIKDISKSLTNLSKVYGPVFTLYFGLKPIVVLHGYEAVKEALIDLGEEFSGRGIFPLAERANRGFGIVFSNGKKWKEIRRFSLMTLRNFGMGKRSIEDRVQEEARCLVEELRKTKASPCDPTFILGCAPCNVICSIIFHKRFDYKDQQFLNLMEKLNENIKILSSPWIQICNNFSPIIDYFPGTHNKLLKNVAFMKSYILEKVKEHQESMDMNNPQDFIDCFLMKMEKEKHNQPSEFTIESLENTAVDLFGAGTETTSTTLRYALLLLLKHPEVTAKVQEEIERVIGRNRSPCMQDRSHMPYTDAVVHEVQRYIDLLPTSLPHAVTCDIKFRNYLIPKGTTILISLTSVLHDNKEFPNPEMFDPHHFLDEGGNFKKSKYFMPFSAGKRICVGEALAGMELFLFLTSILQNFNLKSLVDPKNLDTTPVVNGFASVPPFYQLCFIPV
CYP2D6, sequence (P10635 whole entry, species assumed): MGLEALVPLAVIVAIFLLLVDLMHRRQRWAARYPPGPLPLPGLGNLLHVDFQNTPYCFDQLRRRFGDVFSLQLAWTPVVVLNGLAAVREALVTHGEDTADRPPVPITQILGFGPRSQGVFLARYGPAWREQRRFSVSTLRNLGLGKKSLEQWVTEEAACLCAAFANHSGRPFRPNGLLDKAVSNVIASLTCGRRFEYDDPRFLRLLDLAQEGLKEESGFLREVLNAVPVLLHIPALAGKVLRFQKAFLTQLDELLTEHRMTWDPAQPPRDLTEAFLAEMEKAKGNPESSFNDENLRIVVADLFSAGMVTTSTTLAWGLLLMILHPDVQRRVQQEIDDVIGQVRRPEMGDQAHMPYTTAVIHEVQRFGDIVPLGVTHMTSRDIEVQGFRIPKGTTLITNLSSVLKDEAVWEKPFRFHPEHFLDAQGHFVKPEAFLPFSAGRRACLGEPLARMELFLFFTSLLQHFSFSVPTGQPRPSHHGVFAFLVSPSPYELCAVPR
human recombinant GSK3β, sequence (P49841 whole entry): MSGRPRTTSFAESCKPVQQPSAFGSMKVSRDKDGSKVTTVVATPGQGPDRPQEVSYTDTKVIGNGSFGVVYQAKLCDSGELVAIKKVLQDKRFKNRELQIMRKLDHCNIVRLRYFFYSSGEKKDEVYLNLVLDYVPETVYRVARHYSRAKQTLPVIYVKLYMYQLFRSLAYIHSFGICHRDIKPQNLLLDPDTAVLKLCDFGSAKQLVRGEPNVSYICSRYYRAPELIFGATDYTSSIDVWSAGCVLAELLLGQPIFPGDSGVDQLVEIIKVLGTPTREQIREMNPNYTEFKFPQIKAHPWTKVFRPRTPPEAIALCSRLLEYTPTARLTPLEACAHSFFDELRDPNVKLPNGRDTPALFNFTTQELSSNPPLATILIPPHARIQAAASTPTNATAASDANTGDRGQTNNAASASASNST
CYP3A4, sequence (P08684 whole entry, species assumed): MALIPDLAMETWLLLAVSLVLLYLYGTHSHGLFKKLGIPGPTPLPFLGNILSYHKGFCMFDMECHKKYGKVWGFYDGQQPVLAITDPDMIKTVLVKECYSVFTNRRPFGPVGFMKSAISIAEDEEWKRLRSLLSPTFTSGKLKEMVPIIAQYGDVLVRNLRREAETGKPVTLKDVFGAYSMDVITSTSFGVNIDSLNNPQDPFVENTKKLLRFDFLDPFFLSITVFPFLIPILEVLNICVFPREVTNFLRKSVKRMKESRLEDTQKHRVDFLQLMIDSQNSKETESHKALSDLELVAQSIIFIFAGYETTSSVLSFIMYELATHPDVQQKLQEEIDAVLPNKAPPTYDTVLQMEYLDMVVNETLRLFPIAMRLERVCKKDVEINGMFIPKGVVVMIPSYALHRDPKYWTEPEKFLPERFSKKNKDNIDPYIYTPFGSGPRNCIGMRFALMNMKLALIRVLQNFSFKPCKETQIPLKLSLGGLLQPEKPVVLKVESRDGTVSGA

## Cc1ncc(-c2nc(Nc3ccc(C(=O)N4CCCCC4)c(Cl)c3)ncc2F)n1C1CCOCC1 [13a]
Human recombinant GSK3β
  Ki: 2.49 nM
  IC50: 3.31 nM
GSK-3 [1]
  Kd: 1.09 nM
[2]
  fraction unbound: 0.036
Solubility
  solubility: 234 µM (≈ 117 µg/mL)
[3]
  hepatocyte CLint: 34.2 µL/min/1e6 cells
CYP1A2
  IC50: > 2000 nM
CYP2C9
  IC50: > 2000 nM
CYP2D6
  IC50: > 2000 nM
CYP3A4
  IC50: > 2000 nM
hERG channel
  IC50: 4520 nM

## Cc1ncc(-c2nc(Nc3ccc(C(=O)N(C)C)c(Cl)c3)ncc2F)n1C1CCOCC1 [13b]
Human recombinant GSK3β
  Ki: 3.01 nM
  IC50: 4.01 nM
[4]
  P app A-B: 22.7 × 10^–6 cm/s
  efflux ratio: 1.2
[2]
  fraction unbound: 0.13
Solubility
  solubility: 155 µM (≈ 71.1 µg/mL)
Protein binding (% free)
  fraction unbound: 0.056
[3]
  hepatocyte CLint: 17.5 µL/min/1e6 cells
[5]
  bioavailability: 39.8%
  half-life: 2.32 h
CYP1A2
  IC50: > 2000 nM
CYP2C9
  IC50: > 2000 nM
CYP2D6
  IC50: > 2000 nM
CYP3A4
  IC50: > 2000 nM
hERG channel
  IC50: 18800 nM

## Cc1cc(Nc2ncc(F)c(-c3cnc(C)n3C3CCOCC3)n2)ccc1C(=O)N(C)C [13c]
Human recombinant GSK3β
  Ki: 4.48 nM
  IC50: 5.96 nM
GSK-3 [1]
  Kd: 2.74 nM
[4]
  P app A-B: 16.2 × 10^–6 cm/s
  efflux ratio: 2.1
[2]
  fraction unbound: 0.19
Solubility
  solubility: > 400 µM

## COCCN(C)C(=O)c1ccc(Nc2ncc(F)c(-c3cnc(C)n3C3CCOCC3)n2)cc1C [13d]
Human recombinant GSK3β
  Ki: 4.95 nM
  IC50: 6.61 nM
GSK-3 [1]
  Kd: 6.46 nM
[4]
  P app A-B: 21.9 × 10^–6 cm/s
  efflux ratio: 0.7
[2]
  fraction unbound: 0.26
Protein binding (% free)
  fraction unbound: 0.11
[3]
  hepatocyte CLint: 15.4 µL/min/1e6 cells
[5]
  bioavailability: 32.9%
  half-life: 3.65 h
CYP1A2
  IC50: > 2000 nM
CYP2C9
  IC50: > 2000 nM
CYP2D6
  IC50: > 2000 nM
CYP3A4
  IC50: > 2000 nM
hERG channel
  IC50: > 33000 nM
GSK-3β; tritiated ligand, rat brain sections, baseline
  radioactive accumulation / distribution in autoradiography: lowest level of radioactive accumulation

## [11CH3]Oc1ccc(CNC(=O)Nc2ncc([N+](=O)[O-])s2)cc1 [[^11C]1, N-(4-methoxybenzyl)-N′-(5-nitro-1,3-thiazol-2-yl)urea]
GSK-3β
  blocking of [^3H]13a–13e binding in autoradiography: significantly reduced the radioactive signal in all the brain regions
GSK-3 [6]
  Ki: […]
GSK-3 [7]
  brain uptake / BBB penetration in PET studies: […]

## [11CH3]N1CCN(S(=O)(=O)c2ccc(-c3cnc(N)c(C(=O)Nc4cccnc4)n3)cc2)CC1 [[^11C]2]
GSK-3 [7]
  brain uptake / BBB penetration in PET studies: poor brain uptake in rodents and nonhuman primates

## Cc1nnc(-c2ccc3occ(-c4ccc(S[11CH3])cc4)c3c2)o1 [[^11C]3]
GSK-3 [6]
  IC50: 66 nM

## Cc1nnc(-c2ccc3occ(-c4ccc([S+]([11CH3])[O-])cc4)c3c2)o1 (centres unmarked) [[^11C]4]
GSK-3 [6]
  IC50: 35 nM

## Cc1nnc(-c2ccc3occ(-c4ccc(S([11CH3])(=O)=O)cc4)c3c2)o1 [[^11C]5]
GSK-3 [6]
  IC50: 42 nM

## Cn1cc(C2=C(c3ccc(Cl)cc3Cl)C(=O)NC2=O)c2ccccc21 [[^11C]6, reference compound]
GSK-3β
  blocking of [^3H]13a–13e binding in autoradiography: significantly reduced the radioactive signal in all the brain regions
GSK-3 [7]
  brain uptake / BBB penetration in PET studies: first GSK-3 radioligand reported to penetrate the BBB in rodents and NHPs

## [11CH3]Oc1ccc(-c2ocnc2C(=O)NCCCn2cncn2)cc1Cl [[^11C]8]
GSK-3 [6]
  IC50: 2.1 nM
GSK-3 [7]
  brain uptake / BBB penetration in PET studies: promising brain uptake and binding specificity in NHPs

## [11CH3]Oc1ccc2c(NC(=O)Nc3cccc(C(F)(F)F)c3)ccnc2c1 [[^11C]9]
GSK-3 [6]
  Ki: 0.6 nM

## CCn1cc(C2=C(c3cccc(OCC[18F])c3)C(=O)NC2=O)c2cc(F)ccc21 [[^18F]7]
GSK-3 [6]
  IC50: 1.7 nM
